{"source": "patent US20120149888A1", "about": "“SYNTHESIS OF ARA-2'-O-METHYL-NUCLEOSIDES, CORRESPONDING PHOSPHORAMIDITES AND OLIGONUCLEOTIDES INCORPORATING NOVEL MODIFICATIONS FOR BIOLOGICAL APPLICATION IN THERAPEUCTICS, DIAGNOSTICS, G- TETRAD FORMING OLIGONUCLEOTIDES AND APTAMERS” (priority 2009, published 2012)", "origin": "cited, not measured here", "key": {"Ehrlich ascites (EAC-R2)": {"test_system": "Ehrlich ascites (EAC-R2)", "conditions": "6-Methyl thiopurine ribonucleoside-resistant Ehrlich ascites (EAC-R2)"}, "Ehrlich ascites (ETGR11)": {"test_system": "Ehrlich ascites (ETGR11)", "conditions": "Thioguanine-resistant Ehrlich ascites (ETGR11)"}, "L1210/MP": {"test_system": "L1210/MP", "conditions": "6-Mercaptopurine-resistant L1210/MP"}, "L1210/ara-C": {"test_system": "L1210/ara-C", "conditions": "L1210/ara-C (Schabel et al., 1971)"}, "[1]": {"test_system": "explants of intact rat colonic mucosa"}, "P815": {"test_system": "P815", "conditions": "1β-D-Arabinofuranosylcytosine-resistant P815"}, "[2]": {"test_system": "equilibrative NBMPR-sensitive nucleoside transporter (es)", "conditions": "growth-inhibitory concentrations"}, "[3]": {"test_system": "ara-C-resistant neoplasms", "conditions": "several other ara-C-resistant neoplasms"}, "L1210/CA": {"test_system": "L1210/CA", "conditions": "1β-D-Arabinofuranosylcytosine-resistant L1210/CA"}}, "note": "Where two headings read alike, the source gives them in different places.", "data": [{"molecule": "Sc1ncnc2nc[nH]c12", "note": "[6-Mercaptopurine]", "values": [{"measurement": "Response to chemotherapeutic drugs: Cross-resistant", "setting": "Ehrlich ascites (EAC-R2)", "result": "6-Mercaptopurine^b"}, {"measurement": "Response to chemotherapeutic drugs: Cross-resistant", "setting": "Ehrlich ascites (EAC-R2); listed as 6-MP", "result": "partially cross-resistant"}, {"measurement": "Response to chemotherapeutic drugs: Cross-resistant", "setting": "Ehrlich ascites (ETGR11)", "result": "6-Mercaptopurine"}]}, {"molecule": "CN(C)/N=N/c1[nH]cnc1C(N)=O", "note": "[DIC]", "values": [{"measurement": "Response to chemotherapeutic drugs: Same as parent line", "setting": "L1210/MP", "result": "DIC"}]}, {"molecule": "NC(=O)NO", "note": "[hydroxyurea]", "values": [{"measurement": "Response to chemotherapeutic drugs: Same as parent line", "setting": "L1210/ara-C", "result": "Hydroxyurea"}, {"measurement": "incorporation of tritiated TdR into DNA", "setting": "[1]", "result": "reduced"}, {"measurement": "Response to chemotherapeutic drugs: Same as parent line", "setting": "P815", "result": "Hudroxyurea"}, {"measurement": "expression of es", "setting": "[2]", "result": "increases"}, {"measurement": "cross-resistance of ara-C-resistant neoplasms to the drug", "setting": "[3]", "result": "no cross-resistance"}, {"measurement": "Response to chemotherapeutic drugs: Same as parent line", "setting": "L1210/CA", "result": "Hydroxyurea"}]}]}
